Laboratory results reported in patent publication US9663473B2 (Actelion Pharmaceuticals Ltd, priority 2013, dated 2017).

Target: T1, recombinant human ALX receptor (Homo sapiens, UniProt P25090)
T1 construct: expressed in transfected cells; host or cells: HEK293 (HEK293-hALXR-Gα16)
T1 sequence (P25090 1-351): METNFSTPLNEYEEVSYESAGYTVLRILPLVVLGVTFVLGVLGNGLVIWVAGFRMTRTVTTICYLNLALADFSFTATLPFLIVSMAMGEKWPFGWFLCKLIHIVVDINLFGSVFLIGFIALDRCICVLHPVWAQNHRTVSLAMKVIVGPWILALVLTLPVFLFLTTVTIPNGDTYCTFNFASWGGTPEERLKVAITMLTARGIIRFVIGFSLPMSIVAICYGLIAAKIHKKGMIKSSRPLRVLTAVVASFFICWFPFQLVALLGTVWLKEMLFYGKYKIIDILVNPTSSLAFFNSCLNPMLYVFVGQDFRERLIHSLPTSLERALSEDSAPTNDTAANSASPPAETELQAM
Experiment: Intracellular calcium measurements (FLIPR), ALX receptor agonistic activity
Assay type: cell-based
Conditions: HEK293-hALXR-Gα16 cells, Fluo-4 calcium signal, normalized to WKYMVm 10 nM
Procedure: The ALX receptor agonistic activity of the compounds of formula (I) is determined in accordance with the following experimental method.
Intracellular Calcium Measurements:
Cells expressing recombinant human ALX receptor and the G-protein Gα16 (HEK293-hALXR-Gα16) were grown to 80% confluency in Growing Medium (GM). Cells were detached from culture dishes with a cell dissociation buffer (Invitrogen, 13151-014), and collected by centrifugation at 1′000 rpm at rt for 5 min in Assay Buffer (AB) (equal parts of Hank's BSS (Gibco, 14065-049) and DMEM without Phenol Red (Gibco, 11880-028)). After 60 min incubation at 37° C. under 5% CO2 in AB supplemented with 1 μM Fluo-4 (AM) (Invitrogen, F14202) and 20 mM HEPES (Gibco, 15630-056), the cells were washed and resuspended in AB. They were then seeded onto 384-well FLIPR assay plates (Greiner, 781091) at 50′000 cells in 70 μl per well and sedimented by centrifugation at 1′000 rpm for 1 min. Stock solutions of test compounds were made up at a concentration of 10 mM in DMSO, and serially diluted in AB to concentrations required for activation dose response curves. WKYMVm (Phoenix Peptides) was used as a reference agonist. A FLIPR Tetra instrument (Molecular Devices) was operated according to the manufacturer's standard instructions, adding 4 μl of test compound dissolved at 10 mM in DMSO and diluted prior to the experiment in assay buffer to obtain the desired final concentration. Changes in fluorescence were monitored before and after the addition of test compounds at lex=488 nm and lem=540 nm. Emission peak values above base level after compounds addition were exported after base line subtraction. Values were normalized to high-level control (WKYMVm compound, 10 nM final concentration) after subtraction of the base line value (AB addition).

| SMILES | EC50 |
| --- | --- |
| CC(F)(F)c1ccc(CC(NC(=O)N[C@H]2CC[C@H](O)CC2)c2nc3ccccc3[nH]2)cc1 (relative stereo) [Example 393, 1-(1-(1H-Benzo[d]imidazol-2-yl)-2-(4-(1,1-difluoroethyl)phenyl)ethyl)-3-(trans-4-hydroxycyclohexyl)urea] | 3.9 nM |
| COc1ccc(C(C)C(NC(=O)N[C@H]2CC[C@H](O)CC2)c2nc3ccccc3[nH]2)cc1 (relative stereo) [Example 395, 1-(1-(1H-Benzo[d]imidazol-2-yl)-2-(4-methoxyphenyl)propyl)-3-(trans-4-hydroxycyclohexyl)urea] | 6.4 nM |
| COc1ccc(CC(NC(=O)N[C@H]2CC[C@H](O)CC2)c2nc3ccccc3[nH]2)c(C)c1 (relative stereo) [Example 396, 1-(1-(1H-Benzo[d]imidazol-2-yl)-2-(4-methoxy-2-methylphenyl)ethyl)-3-(trans-4-hydroxycyclohexyl)urea] | 26 nM |
| COc1ccc(CC(NC(=O)N[C@H]2CC[C@H](O)CC2)c2nc3ccc(Br)cc3[nH]2)cc1 (relative stereo) [Example 424, 1-(1-(6-bromo-1H-benzo[d]imidazol-2-yl)-2-(4-methoxyphenyl)ethyl)-3-(trans-4-hydroxycyclohexyl)urea] | 0.8 nM |
| COc1ccc(CC(NC(=O)N[C@H]2CC[C@H](O)CC2)c2nc3ncncc3[nH]2)cc1 (relative stereo) [Example 426, 1-(trans-4-hydroxycyclohexyl)-3-(2-(4-methoxyphenyl)-1-(7H-purin-8-yl)ethyl)urea] | 374 nM |
| COc1ccc(CC(NC(=O)N[C@H]2CC[C@H](O)CC2)c2nc3cccnc3[nH]2)cc1 (relative stereo) [Example 427, 1-(1-(3H-imidazo[4,5-b]pyridin-2-yl)-2-(4-methoxyphenyl)ethyl)-3-(trans-4-hydroxycyclohexyl)urea] | 604 nM |
| COc1ccc(CC(NC(=O)N[C@H]2CC[C@H](O)CC2)c2nc3ccncc3[nH]2)cc1 (relative stereo) [Example 428, 1-(1-(3H-imidazo[4,5-c]pyridin-2-yl)-2-(4-methoxyphenyl)ethyl)-3-(trans-4-hydroxycyclohexyl)urea] | 299 nM |
| COc1ccc(CC(NC(=O)N[C@H]2CC[C@H](O)CC2)c2nc3ccc(F)cc3[nH]2)c(F)c1 (single isomer, unassigned; ent-1) [Example 260, 1-(1-(6-Fluoro-1H-benzo[d]imidazol-2-yl)-2-(2-fluoro-4-methoxyphenyl)ethyl)-3-(trans-4-hydroxycyclohexyl)urea (ent-1)] | 0.4 nM |
| COc1c(F)c(F)c(CC(NC(=O)N[C@H]2CC[C@H](O)CC2)c2nc3ccccc3[nH]2)c(F)c1F (single isomer, unassigned; ent-1) [Example 312, 1-(1-(1H-Benzo[d]imidazol-2-yl)-2-(2,3,5,6-tetrafluoro-4-methoxyphenyl)ethyl)-3-(trans-4-hydroxycyclohexyl)urea (ent-1)] | 22 nM |
| O=C(NC(Cc1ccc(Br)cc1F)c1nc2ccccc2[nH]1)N[C@H]1CC[C@H](O)CC1 (single isomer, unassigned; ent-1) [Example 313, 1-(1-(1H-Benzo[d]imidazol-2-yl)-2-(4-bromo-2-fluorophenyl)ethyl)-3-(trans-4-hydroxycyclohexyl)urea (ent-1)] | 2.4 nM |
| COc1ccc(CC(NC(=O)N[C@H]2CC[C@H](O)CC2)c2nc3ccc(F)cc3[nH]2)cc1F (single isomer, unassigned; ent-1) [Example 318, 1-(1-(6-Fluoro-1H-benzo[d]imidazol-2-yl)-2-(3-fluoro-4-methoxyphenyl)ethyl)-3-(trans-4-hydroxycyclohexyl)urea (ent-1)] | 1.2 nM |

Next, values leading:

| EC50 | SMILES |
| --- | --- |
| 2 nM | COc1ccc(CC(NC(=O)NC23CCC(O)(CC2)CC3)c2nc3ccccc3[nH]2)cc1F (single isomer, unassigned; ent-1) [Example 257, 1-(1-(1H-Benzo[d]imidazol-2-yl)-2-(3-fluoro-4-methoxyphenyl)ethyl)-3-(4-hydroxybicyclo[2.2.2]octan-1-yl)urea (ent-1)] |
| 40 nM | O=C(NC(Cc1ccc(Br)c(F)c1)c1nc2ccccc2[nH]1)NC12CCC(O)(CC1)CC2 (single isomer, unassigned; ent-1) [Example 258, 1-(1-(1H-Benzo[d]imidazol-2-yl)-2-(4-bromo-3-fluorophenyl)ethyl)-3-(4-hydroxybicyclo[2.2.2]octan-1-yl)urea (ent-1)] |
| 0.5 nM | COc1cc(F)c(CC(NC(=O)NC23CCC(O)(CC2)CC3)c2nc3ccccc3[nH]2)c(F)c1 (single isomer, unassigned; ent-1) [Example 259, 1-(1-(1H-Benzo[d]imidazol-2-yl)-2-(2,6-difluoro-4-methoxyphenyl)ethyl)-3-(4-hydroxybicyclo[2.2.2]octan-1-yl)urea (ent-1)] |
| 3.2 nM | COc1ccc(CC(NC(=O)NC23CCC(O)(CC2)CC3)c2nc3ccccc3[nH]2)c(F)c1 (single isomer, unassigned; ent-1) [Example 261, 1-(1-(1H-Benzo[d]imidazol-2-yl)-2-(2-fluoro-4-methoxyphenyl)ethyl)-3-(4-hydroxybicyclo[2.2.2]octan-1-yl)urea (ent-1)] |
| 1.4 nM | COc1ccc(CC(NC(=O)NC23CCC(O)(CC2)CC3)c2nc3ccc(F)cc3[nH]2)c(F)c1 (single isomer, unassigned; ent-1) [Example 263, 1-(1-(6-Fluoro-1H-benzo[d]imidazol-2-yl)-2-(2-fluoro-4-methoxyphenyl)ethyl)-3-(4-hydroxybicyclo[2.2.2]octan-1-yl)urea (ent-1)] |
| 9 nM | CC1(O)CCC(NC(=O)NC(Cc2ccc(Br)cc2F)c2nc3ccccc3[nH]2)CC1 (single isomer, unassigned; ent-1) [Example 264, 1-(1-(1H-Benzo[d]imidazol-2-yl)-2-(4-bromo-2-fluorophenyl)ethyl)-3-(trans-4-hydroxy-4-methylcyclohexyl)urea (ent-1)] |
| 3.3 nM | COc1ccc(CC(NC(=O)NC23CCC(O)(CC2)CC3)c2nc3ccccc3[nH]2)c(F)c1F (single isomer, unassigned; ent-1) [Example 266, 1-(1-(1H-Benzo[d]imidazol-2-yl)-2-(2,3-difluoro-4-methoxyphenyl)ethyl)-3-(4-hydroxybicyclo[2.2.2]octan-1-yl)urea (ent-1)] |
| 2.7 nM | COc1ccc(CC(NC(=O)NC2CCC(C)(O)CC2)c2nc3ccccc3[nH]2)cc1F (single isomer, unassigned; ent-1) [Example 308, 1-(1-(1H-Benzo[d]imidazol-2-yl)-2-(3-fluoro-4-methoxyphenyl)ethyl)-3-(trans-4-hydroxy-4-methylcyclohexyl)urea (ent-1)] |
| 3.7 nM | COc1ccc(CC(NC(=O)N[C@H]2CC[C@H](O)CC2)c2nc3ccccc3[nH]2)cc1F (single isomer, unassigned; ent-1) [Example 309, 1-(1-(1H-Benzo[d]imidazol-2-yl)-2-(3-fluoro-4-methoxyphenyl)ethyl)-3-(trans-4-hydroxycyclohexyl)urea (ent-1)] |
| 3.6 nM | COc1ccc(CC(NC(=O)NC2CCC(C)(O)CC2)c2nc3ccccc3[nH]2)c(F)c1 (single isomer, unassigned; ent-1) [Example 311, 1-(1-(1H-Benzo[d]imidazol-2-yl)-2-(2-fluoro-4-methoxyphenyl)ethyl)-3-(trans-4-hydroxy-4-methylcyclohexyl)urea (ent-1)] |
| 3.2 nM | COc1cc(F)c(CC(NC(=O)N[C@H]2CC[C@H](O)CC2)c2nc3ccccc3[nH]2)c(F)c1 (single isomer, unassigned; ent-1) [Example 316, 1-(1-(1H-Benzo[d]imidazol-2-yl)-2-(2,6-difluoro-4-methoxyphenyl)ethyl)-3-(trans-4-hydroxycyclohexyl)urea (ent-1)] |
| 1 nM | COc1ccc(CC(NC(=O)NC23CCC(O)(CC2)CC3)c2nc3ccc(F)cc3[nH]2)cc1F (single isomer, unassigned; ent-1) [Example 319, 1-(1-(6-Fluoro-1H-benzo[d]imidazol-2-yl)-2-(3-fluoro-4-methoxyphenyl)ethyl)-3-(4-hydroxybicyclo[2.2.2]octan-1-yl)urea (ent-1)] |
| 5.5 nM | COc1cc(F)c(CC(NC(=O)N[C@H]2CC[C@H](O)CC2)c2nc3ccccc3[nH]2)cc1F (single isomer, unassigned; ent-1) [Example 356, 1-(1-(1H-Benzo[d]imidazol-2-yl)-2-(2,5-difluoro-4-methoxyphenyl)ethyl)-3-(trans-4-hydroxycyclohexyl)urea (ent-1)] |
